Columns and labels:
[1] = test system: Haliotis rufescens larvae; settings: cited from earlier work; for induction of larvae settlement: in vivo
[2] = test system: two different species of Haliotis; settings: cited from earlier work
[3] = test system: chemically induced electrographic seizures; test: Focal perfusion of rat cerebral cortex, chemically induced electrographic seizures; assay type: in vivo; settings: focal perfusion of local areas of rat cerebral cortex; personal experience
[4] = test system: larvae of Haliotis discus hannai; settings: in vivo; cited from earlier work
[5] = target: T1, thyroxine-binding globulin (Homo sapiens, UniProt P05543); settings: cited from earlier work
T1 sequence (P05543 21-415): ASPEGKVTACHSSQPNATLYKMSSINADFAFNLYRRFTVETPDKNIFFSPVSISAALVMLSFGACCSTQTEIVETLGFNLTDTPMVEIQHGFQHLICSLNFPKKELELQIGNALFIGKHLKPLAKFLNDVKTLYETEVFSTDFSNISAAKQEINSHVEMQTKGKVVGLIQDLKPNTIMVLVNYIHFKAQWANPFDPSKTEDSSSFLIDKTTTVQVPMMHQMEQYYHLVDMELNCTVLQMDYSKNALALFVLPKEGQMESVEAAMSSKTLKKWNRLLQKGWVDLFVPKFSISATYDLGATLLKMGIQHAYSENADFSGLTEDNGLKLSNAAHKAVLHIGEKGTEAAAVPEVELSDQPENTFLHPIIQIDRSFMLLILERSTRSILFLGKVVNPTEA

Haliotis rufescens = settings: in vivo; cited from earlier work

Row | Compound | induction of larvae settlement [1] | further results
1 | [K+] [potassium] | – | promotion of settlement ([1]; higher concentrations of K^+): will not promote settlement; effect on settlement induction by GABA ([1]; low concentration of K^+): inhibit induction by GABA; larva attached ([1]; ˜10 mM above that found in seawater, within 72 hours): up to 90%
2 | CCCC(=O)O [n-butyric acid] | not able to induce | –
3 | NC[C@H](O)c1ccc(O)c(O)c1 [norepinephrine] | not able to induce | –
4 | CNC[C@H](O)c1ccc(O)c(O)c1 [epinephrine] | not able to induce | –
5 | NCC(=O)O [glycine] | can also induce Haliotis larvae settlement | –
6 | NCCCC(=O)O [GABA, γ-aminobutyric acid] | – | larval attachment ([1]; 10^−6 molar in sea water): 96-100%
7 | NC(=O)CC[C@H](N)C(=O)O [L-glutamine] | completely ineffective | –
8 | N[C@@H](Cc1cc(I)c(Oc2ccc(O)c(I)c2)c(I)c1)C(=O)O [T3] | – | induction of larval metamorphosis [2]: can induce larval metamorphosis
9 | [Cl-].[K+] [potassium chloride] | – | effect on chemically induced electrographic seizures [3]: may prevent or abort
10 | CBr [bromomethane] | – | induction in larvae [4]: induction has been triggered
11 | CN1C(=O)CN=C(c2ccccc2)c2cc(Cl)ccc21 [diazepam] | – | inhibition of thyroxine binding to thyroxine-binding globulin [5]: competitively inhibit
12 | N[C@@H](Cc1cc(I)c(Oc2cc(I)c(O)c(I)c2)c(I)c1)C(=O)O [L-thyroxine] | – | induction of larval metamorphosis (Haliotis rufescens): could induce larval metamorphosis; induction of larval metamorphosis [2]: can induce larval metamorphosis
13 | Br [Br^−] | – | induction of settlement by anion replacement ([1]; replacing 25-75% of the Cl^− in seawater): may be induced
14 | [Na+] [Na^+] | not able to induce | –
15 | NCCCCCC(=O)O [ε-amniocaproic acid] | can also induce Haliotis larvae settlement | –
16 | CCCCN [n-butylamine] | not able to induce | –
17 | N[C@H](CCC(=O)O)C(=O)O [D-glutamate] | completely ineffective | –
18 | NCCc1c[nH]c2ccc(O)cc12 [serotonin] | not able to induce | –
19 | NCCCCC(=O)O [δ-amniovaleric] | can also induce Haliotis larvae settlement | –
20 | [Mg+2] [Mg^+2] | not able to induce | –
21 | NCCC(=O)O [β-alanine] | can also induce Haliotis larvae settlement | –
22 | NCCc1c[nH]cn1 [histamine] | not able to induce | –
23 | N[C@@H](CCC(=O)O)C(=O)O [L-glutamate] | did slowly promote larval settlement | –
24 | NCc1cc(=O)[nH]o1 [muscimol] | can also induce Haliotis larvae settlement | –

Reference: patent US20080014145A1, “ABALONE SETTLEMENT BIOASSAY FOR ANTI-SEIZURE SUBSTANCE SCREENING” (priority 2006, published 2008)
